Data taken from patent US8609660B2, “4,7-dihydro-pyrazolo[1,5-a]pyrazin-6-ylamine derivatives useful as inhibitors of beta-secretase (BACE)” (Janssen Pharmaceutica NV, priority 2010, dated 2013).

How the values were obtained:
[1] = system: Aβtotal produced and secreted into the medium of human neuroblastoma SKNBE2 cells; experiment: Cellular αlisa assay in SKNBE2 cells, Aβtotal; format: cell-based; details: SKNBE2 cells expressing hAPP695, 18 hours incubation; for IC50: Homo sapiens, SKNBE2, 18 h, read-out: Cellular αlisa assay in SKNBE2 cells Aβtotal pIC50 (converted)
Description: (§1) Cellular αlisa Assay in SKNBE2 Cells In two αlisa assays the levels of Aβtotal and Aβ42 produced and secreted into the medium of human neuroblastoma SKNBE2 cells are quantified. The assay is based on the human neuroblastoma SKNBE2 expressing the wild type Amyloid Precursor Protein (hAPP695). […] Aβtotal and Aβ42 are measured by sandwich α[…] sandwich assay using biotinylated antibody AbN/25 attached to streptavidin coated beads and antibody Ab4G8 or cAb42/26 conjugated acceptor beads for the detection of Aβtotal and Aβ42 respectively. In the presence of Aβtotal or Aβ42, the beads come into close proximity. The excitation of the Donor beads provokes the release of singlet oxygen molecules that triggers a cascade of energy transfer in the Acceptor beads, resulting in light emission. Light emission is measured after 1 hour incubation (excitation at […] and emission at 615 nm). A best-fit curve is fitted by a minimum sum of squares method to the plot of % Controlmin versus compound concentration. […] [formula]

[2] = system: Aβ42 produced and secreted into the medium of human neuroblastoma SKNBE2 cells; experiment: Cellular αlisa assay in SKNBE2 cells, Aβ42; format: cell-based; details: SKNBE2 cells expressing hAPP695, 18 hours incubation; for IC50: Homo sapiens, SKNBE2, 18 h, read-out: Cellular αlisa assay in SKNBE2 cells Aβ42 pIC50 (converted)
Description: as §1

[3] = target: T1, recombinant BACE1 protein (Homo sapiens, UniProt P56817); experiment: Biochemical FRET based assay; details: recombinant BACE1 1 μg/ml, 120 min, room temperature, pH 5.0; read-out: Biochemical FRET based assay pIC50 (converted)
T1 construct: recombinant BACE1 protein in a final concentration of 1 μg/ml
Source text: Biochemical FRET Based Assay This assay is a Fluorescence Resonance Energy Transfer Assay (FRET) based assay. The substrate for this assay is an APP derived 13 amino acids peptide that contains the 'Swedish' […] mutation of the amyloid precursor protein (APP) β-secretase cleavage site. […] Upon cleavage by BACE1, the fluorophore Mca is separated from the quenching group Dnp, restoring the full fluorescence yield of the donor. The increase in fluorescence is linearly related to the rate of proteolysis (Koike H et al. J Biochem. 1999, 126, 235-42). Briefly in a 384-well format recombinant BACE1 protein in a final concentration of 1 μg/ml is incubated for 120 minutes at room temperature with 10 μm substrate in incubation buffer (40 mM Citrate buffer pH 5.0, 0.04% PEG, 4% DMSO) in the absence or presence of compound. Next the amount of proteolysis is directly measured by fluorescence measurement at T=0 and T=120 (excitation at 320 nm and emission at 405 nm). […] [formula]

T1 sequence (P56817 46-501): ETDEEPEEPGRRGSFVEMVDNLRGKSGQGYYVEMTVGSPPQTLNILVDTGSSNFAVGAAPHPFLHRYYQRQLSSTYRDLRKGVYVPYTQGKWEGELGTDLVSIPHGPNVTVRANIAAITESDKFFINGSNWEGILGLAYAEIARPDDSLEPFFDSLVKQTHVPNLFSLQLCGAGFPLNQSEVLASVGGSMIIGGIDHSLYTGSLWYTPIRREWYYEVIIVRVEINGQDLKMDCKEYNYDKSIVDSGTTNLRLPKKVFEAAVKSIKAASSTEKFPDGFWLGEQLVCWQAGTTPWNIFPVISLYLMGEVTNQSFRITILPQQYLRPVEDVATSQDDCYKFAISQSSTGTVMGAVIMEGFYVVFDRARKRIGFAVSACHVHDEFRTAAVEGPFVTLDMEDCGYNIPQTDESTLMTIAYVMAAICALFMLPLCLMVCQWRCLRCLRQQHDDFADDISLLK

Row | melting point [°C] | IC50 [1] [nM] | IC50 [2] [nM] | IC50 [3] [nM] | Cellular αlisa assay in SKNBE2 cells Aβtotal pIC50 [1] | Cellular αlisa assay in SKNBE2 cells Aβ42 pIC50 [2] | SMILES
1 | 175.2 | – | – | – | – | – | CC1(c2cc(-c3cncc(Cl)c3)ccc2F)N=C(N)Cn2nc(C(F)(F)F)cc21 (racemic) [Compound 24, rac-4-[5-(5-chloropyridin-3-yl)-2-fluorophenyl]-4-methyl-2-(trifluoromethyl)-4,7-dihydropyrazolo[1,5-a]pyrazin-6-amine]
2 | 198 | – | – | – | – | – | CC1(c2cc(NC(=O)c3ncc(Cl)cc3Cl)ccc2F)N=C(N)Cn2nc(C(F)(F)F)cc21 (racemic) [Compound 27, rac-N-{3-[6-amino-4-methyl-2-(trifluoromethyl)-4,7-dihydropyrazolo[1,5-a]pyrazin-4-yl]-4-fluorophenyl}-3,5-dichloropyridine-2-carboxamide]

Further lines, the compound ahead of its results:

Row | SMILES | melting point [°C] | IC50 [1] [nM] | IC50 [2] [nM] | IC50 [3] [nM] | Cellular αlisa assay in SKNBE2 cells Aβtotal pIC50 [1] | Cellular αlisa assay in SKNBE2 cells Aβ42 pIC50 [2]
3 | CC1(c2cc(-c3cncnc3)c(F)cc2F)N=C(N)Cn2nccc21 (racemic) [Compound 4, rac-4-(2,4-difluoro-5-pyrimidin-5-yl-phenyl)-4-methyl-4,7-dihydropyrazolo[1,5-a]pyrazin-6-amine] | 207 | 1050 | 1070 | 8710 | – | –
4 | COc1cncc(-c2cccc(C3(C)N=C(N)Cn4nc(C(F)(F)F)cc43)c2)c1 (racemic) [Compound 21, rac-4-[3-(5-methoxypyridin-3-yl)-phenyl]-4-methyl-2-(trifluoromethyl)-4,7-dihydropyrazolo[1,5-a]pyrazin-6-amine] | 89.3 | – | – | – | – | –
5 | CC1(c2cc(NC(=O)c3ccc(Cl)cn3)ccc2F)N=C(N)Cn2nccc21 (single isomer, unassigned) [Compound 10, (S*)—N-[3-(6-Amino-4-methyl-4,7-dihydropyrazolo[1,5-a]pyrazin-4-yl)-4-fluorophenyl]-5-chloropyridine-2-carboxamide] | 199 | – | – | > 30200 | 5.44 | 5.41
6 | COc1cccc(-c2cccc([C@@]3(C)N=C(N)Cn4nccc43)c2)c1 [Compound 7, (R)-4-(3′-methoxybiphenyl-3-yl)-4-methyl-4,7-dihydropyrazolo[1,5-a]pyrazin-6-amine] | 153.8 | – | – | – | – | –
7 | NC1=N[C@@](c2cc(NC(=O)c3ncc(Cl)cc3F)ccc2F)(C2CC2)c2ccnn2C1 [Compound 33, (R)—N-{3-[6-amino-4-cyclopropyl-4,7-dihydropyrazolo[1,5-a]pyrazin-4-yl]-4-fluorophenyl}-5-chloro-3-fluoropyridine-2-carboxamide] | 272.6 | 20.9 | 25.7 | 309 | – | –
